In experiment [1] the test system is CD4+CD45RO+ Memory T-cells. The experiment in a line: Memory CD4+ T-cell cytokine release assay. The following applies: Memory T-cells (a-CD3/-CD28/-CD2).
Experimental: Memory CD4^+ T-cells were isolated from human donor PBMCs using an EasySep kit (Stemcell) and were rested overnight in complete RPMI media (Thermofisher) supplemented with 10% FBS (Atlanta Biologics), 10 mM HEPES, 2 mM GlutaMAX, 1 mM Na Pyruvate, and 1×MEM non-essential amino acids (Thermofisher).
The subject of experiment [2] is rat collagen induced arthritis (CIA) model. The experiment in a line: Rat collagen-induced arthritis model: clinical score.
Text: Adult female Lewis Rats (180-200 g body weight) were immunized subcutaneously with Type II bovine collagen/Incomplete Freund's Adjuvant emulsion on Day 0 and Day 7. On Day 14 rats were randomized based on clinical disease scores in different treatment groups. Rats received either once daily (q.d) dose of compounds via oral gavage or Vehicle (0.5% Carboxymethylcellulose-Na+0.5% Tween 80 in water, suspension) for 2 weeks. Naïve rats used as controls.
In a further experiment the test system is CD4+ Total T-cells. Nature of the experiment: Total CD4+ T-cell cytokine release assay. Type of experiment: cell-based, human. Conditions: CD4+ Total T-cells (a-CD3/-CD28). Here is the method:
All cytokine measurements were performed using commercially available kits and as per manufacturer's protocol. Supernatants from human whole blood and cellular assays were quantified using the human Proinflammatory Panel 1 (human) kit on a Sector Imager 6000 reader (Meso Scale Discovery, Rockville, MD). IL-17a was quantified using the V-Plex Human IL-17a kit on a Sector Imager 6000 reader (Meso Scale Discovery, Rockville, MD). Supernatants from rat whole blood assay were analyzed for IL-2 levels using the rat IL-2 Duoset ELISA kit (R&D). Plasma and synovial samples harvested from the rat CIA study were quantified for proinflammatory cytokines using the rat V-PLEX Proinflammatory Panel 2 kit (MSD).

The test system of a further experiment is splenic Tregs. Nature of the experiment: Rat CIA model: splenic Treg levels. Type of experiment: in vivo. Conditions: for reduction in the Treg levels: CIA rats, in comparison to vehicle. Here is the method:
(§1) For isolation of synovial fluid prior to study termination, animals were anesthetized and the skin on the hind limbs were separated to ensure exposure of knee joint. A small incision was made near the top of the knee joint and the articular cavity was rinsed with 60 μl phosphate-buffered saline (PBS) for 2 time and ˜50-60 μl synovial fluid was collected. The synovial fluid samples were spun down, and the supernatant stored at −80° C. prior to cytokine analysis. At study termination, plasma was prepared from whole blood and stored at −80° C. prior to cytokine analysis and measurement of total and anti-collagen IgG. Single cell suspensions were prepared from harvested spleens following standard methods and Treg frequencies measured by flow cytometry-based immunophenotyping of freshly isolated cells.
Harvested spleens were homogenized in cold PBS and cellular debris removed by passing through a […] cell strainer. The cell suspension was centrifuged at 300×g for 5 min at 4° C. and the pellet was treated with 1×RBC lysis buffer per manufacturer's protocol (Thermofisher). The washed cell pellet was resuspended for a final concentration of 5-10×10^6 cells/ml and 100 μl of cell suspension was processed for immunophenotyping. […] Cells were washed with cold FACS wash buffer (BD) and fixed with 1×FoxP3/Transcription Factor Fixation Buffer (Thermofisher) for overnight at 4° C. […] Cells were washed 2-3× with the permeabilization and wash buffer as mentioned earlier, and finally resuspended in FACS wash buffer. Samples were acquired on a BD LSRFortessa flow cytometer and data analyzed using the FlowJo software (BD).

The subject of experiment [3] is human monocyte-derived macrophages. Nature of the experiment: Monocyte-derived macrophages stimulated with depleted zymosan.
Experimental: (§2) After differentiation, cells were harvested with Accutase solution (Stemcell Technologies) and incubated for 2 h at 37° C., 5% CO2 in 96-well plates.
Experiment [4] shares this test system. Nature of the experiment: Monocyte-derived macrophages stimulated with IgG immune complex. The following applies: Macrophages (aIgG + IgG, immune-complex).
Experimental: as §2
In a further experiment the test system is Jurkat-T cells. Nature of the experiment: Jurkat IL-2 assay. Conditions: Jurkat-T cells (a-CD3/-CD28/-CD2); readout IL-2.
In the next experiment the test system is Total B cells. The experiment in a line: B-cell proliferation assay (BCR/CD40L). The following applies: readout Proliferation.
A further experiment addresses T1, MALT1 (Homo sapiens, UniProt Q9UDY8).
T1 sequence (Q9UDY8 1-824): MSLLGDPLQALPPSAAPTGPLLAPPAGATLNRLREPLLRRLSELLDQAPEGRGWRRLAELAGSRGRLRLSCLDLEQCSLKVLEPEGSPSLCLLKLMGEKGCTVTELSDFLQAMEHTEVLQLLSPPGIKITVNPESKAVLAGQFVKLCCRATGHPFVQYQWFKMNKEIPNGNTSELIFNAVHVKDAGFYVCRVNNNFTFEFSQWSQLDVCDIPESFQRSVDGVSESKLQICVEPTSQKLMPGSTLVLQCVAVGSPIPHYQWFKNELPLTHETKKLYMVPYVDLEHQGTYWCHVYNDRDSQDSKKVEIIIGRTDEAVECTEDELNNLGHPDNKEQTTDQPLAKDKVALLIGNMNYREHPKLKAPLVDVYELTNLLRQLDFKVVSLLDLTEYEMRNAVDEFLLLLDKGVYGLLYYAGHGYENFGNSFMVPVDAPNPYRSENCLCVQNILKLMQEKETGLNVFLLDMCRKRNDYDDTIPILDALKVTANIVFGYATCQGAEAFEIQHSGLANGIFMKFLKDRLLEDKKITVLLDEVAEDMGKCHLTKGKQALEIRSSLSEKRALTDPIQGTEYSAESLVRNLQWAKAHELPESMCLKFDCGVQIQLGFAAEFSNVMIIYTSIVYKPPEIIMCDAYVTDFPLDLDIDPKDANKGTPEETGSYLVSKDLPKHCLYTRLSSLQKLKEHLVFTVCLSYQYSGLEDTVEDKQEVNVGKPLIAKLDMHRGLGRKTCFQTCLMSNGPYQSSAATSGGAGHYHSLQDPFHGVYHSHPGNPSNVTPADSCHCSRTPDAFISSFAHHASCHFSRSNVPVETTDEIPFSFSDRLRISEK
Nature of the experiment: Example IC50 and IC90 values of MALT1 inhibitors (blood concentration targets). Type of experiment: cell-based. From the text:
In various embodiments, the plasma PK profile of the MALT1 inhibitor refers to a time over an IC50 blood concentration target following administration to the subject. As used herein, a “time over an IC50 blood concentration target” refers to a period of time following administration in which a concentration of the MALT1 inhibitor in the subject's blood is above the IC50 value.
In various embodiments, the plasma PK profile of the MALT1 inhibitor refers to a time over an IC90 blood concentration target following administration to the subject. As used herein, a “time over an IC90 blood concentration target” refers to a period of time following administration in which a concentration of the MALT1 inhibitor in the subject's blood is above the IC90 value.

Experiment [5] concerns rat collagen induced arthritis (CIA) model. The experiment in a line: Rat CIA model: plasma and synovial cytokines, anti-collagen and total IgG. Type of experiment: in vivo. Here is the method:
as §1
All cytokine measurements were performed using commercially available kits and as per manufacturer's protocol. Supernatants from human whole blood and cellular assays were quantified using the human Proinflammatory Panel 1 (human) kit on a Sector Imager 6000 reader (Meso Scale Discovery, Rockville, MD). IL-17a was quantified using the V-Plex Human IL-17a kit on a Sector Imager 6000 reader (Meso Scale Discovery, Rockville, MD). Supernatants from rat whole blood assay were analyzed for IL-2 levels using the rat IL-2 Duoset ELISA kit (R&D). […]

A further experiment has as its system Tregs. Nature of the experiment: Mouse accelerated Lupus model: Treg levels. Type of experiment: in vivo, mice. Conditions: 3 and 30 mg/kg daily. Here is the method: In this example, REO-528 MALT1 inhibitor was administered to mice of an accelerated Lupus Nephritis model (IFN-alpha accelerated) to investigate the impact of the administration of the MALT1 inhibitor. Mice were divided into 6 groups: 1) Naïve, 2) vehicle (weeks 13-18), 3) REO538 (3 mg/kg) daily administration weeks 13-18, 4) REO-538 (30 mg/kg) daily administration weeks 13-18, 5) REO-538 (30 mg/kg) daily administration weeks 15-18, and 6) BID dexamethasone (Dex) at 1 mg/kg for weeks 15-18. Groups 2 through 6 were also administered AAV encoding mIFNα to accelerate the lupus nephritis disease.

Like-named read-outs stand apart in the source and are kept apart here.

Experimental for Jurkat-T cells: Cells were cultured in RPMI/10% FBS (Thermofisher) and maintained under a concentration of 3×10^6 cells/ml. MALT1i at different concentrations were stamped by ECHO onto 384-well plates (PerkinElmer, Waltham, MA) following which cells were plated in fresh media and incubated for 30 minutes before stimulation with soluble α-CD3/CD28/CD2 (ImmunoCult, Stemcell Technologies, Vancouver, Canada) for 24 h. Supernatants were collected as mentioned earlier and processed immediately for cytokine analysis or stored at −80° C. To assess viability of cells treated with compound, cells were lysed with CTG reagent (Promega, Madison, WI), and measured by luminometer.
Experimental for Total B cells: Freshly isolated total CD19^+ B-cells (Stemcell) from Human PBMCs were labeled with 2 μM Cell Trace Violet (ThermoFisher) and incubated for 5 min on a Nutator. […] Proliferation was assessed by flow cytometry.

For `CO[C@@H](C)c1c(NC(=O)Nc2ccnc(C(F)(F)F)c2)cnc2cc(Cl)nn12` [REO-981], the “Effect size (% Max. inhibition)” value in [1] (readout IFNg) is roughly 80%; in [1] (readout IL-2), greater than 90%; in experiment [1] (readout IL-17), greater than 90%; in experiment [1] (readout TNFa), roughly 85%; in the experiment with CD4+ Total T-cells (readout IFNg), greater than 95%; in the experiment with CD4+ Total T-cells (readout IL-2), greater than 95%. Further, the “Effect size (% Max. inhibition)” value is given as roughly 85% in the experiment on CD4+ Total T-cells (readout TNFa); greater than 60% in experiment [3] (readout IL-6); greater than 75% in experiment [3] (readout TNFa); greater than 75% in [4] (readout IL-6); roughly 74% in experiment [4] (readout TNFa); greater than 95% with Jurkat-T cells. For the same compound, the “Effect size (% Max. inhibition)” value in the experiment with Total B cells was roughly 60%. The “log10Ctrough value at ~50% reduction in the clinical score” value in experiment [2] (rat, in vivo) is roughly 2.6 ng/mL. Besides, the “log10Ctrough value at ~40% reduction in Treg levels” value in the experiment with splenic Tregs (rat, in vivo) is recorded as roughly 3.3 ng/mL.
With `CN(C(=O)C1CCS(=O)(=O)CC1)[C@@H](c1ccc(Nc2cnc3cccnc3c2C2CC2)cc1)C(F)(F)F` [REO-538], the “reduction in the clinical score” value in experiment [2] (0.3 mg/kg dose, in comparison to the vehicle treatment) is given as 26%; in experiment [2] (1 mg/kg dose, in comparison to the vehicle treatment), 59%; in experiment [2] (3 mg/kg dose, in comparison to the vehicle treatment), 65%; in experiment [2] (10 mg/kg dose, in comparison to the vehicle treatment), 80%; in experiment [2] (Example 6: daily 3 mg/kg for 14 days, vs vehicle) it was 25%; in [2] (Example 6: daily 10 mg/kg for 2 days followed by daily 3 mg/kg for 12 days, vs vehicle) it was 43%. In addition, in [2] (Example 6: daily 10 mg/kg for 14 days, vs vehicle), the “reduction in the clinical score” value came out at 70%. Moreover, the “log10AUC value at ~50% reduction in the clinical score” value in experiment [2] (rat CIA model) is recorded as roughly 1.2 μg*hr/mL. Besides, the “qualitative efficacy (FIG. 11)” value in experiment [2] (rat CIA model) is recorded as “high efficacy”. Also, the IC90 on MALT1 (example values, blood concentration target, read-out: IC90) is 10.4 µM; on MALT1 (higher dotted line of FIG. 13B, read-out: IC90 value (estimated)) it was roughly 1 µg/mL. The half-maximal inhibitory concentration (IC50) on MALT1 (lower dotted line of FIG. 13B, read-out: estimated IC50 value (converted)) is roughly 376 nM. For the same compound, the “IL-1beta and IL-6 in synovial fluid” value in experiment [5] (10 mg/kg and 10+3 mg/kg groups in comparison to the 3 mg/kg group) is “lower”. In [5] (each of the 3 mg/kg, 10 mg/kg and 10+3 mg/kg groups in comparison to vehicle), the “KC/GRO and TNFα in synovial fluid” value is “lower levels”. The “reduction in the Treg levels” value came out at 1% in the experiment on splenic Tregs (1 mg/kg dose) and 49% in the experiment with splenic Tregs (10 mg/kg dose). Also, the “log10AUC value at ~40% reduction in Treg levels” value in the experiment on splenic Tregs (rat CIA model) is listed as roughly 2.0 μg*hr/mL. Besides, the “qualitative Treg impact (FIG. 11)” value with splenic Tregs (rat CIA model) is reported as “low Treg impact”. In the experiment on Tregs, the Treg levels result is listed as “reduced Treg levels in a dose dependent manner”.

In general, IC90 refers to the concentration at which the effect reaches the 90% level. One may read the IC50 as the concentration that gives 50% inhibition.

Source of the values: patent US20250032493A1, “Methods for Treating Diseases Using MALT1 Inhibitors” (RARIFIED BIOSCIENCES, INC., priority 2021, published 2025).
